The source of these data is patent US20070043018A1, “2"-Hydroxynicotianamine, process for producing the same and angiotensin converting enzyme inhibitor, hypotensive drug and health food” (JAPAN SCIENCE AND TECHNOLOGY AGENCY, priority 2003, published 2007).

The target in data set [1] is T1, ACE from the lung of rabbit (Oryctolagus cuniculus, UniProt P12822).
T1 construct: ACE used was a freeze dry product of ACE from the lung of rabbit (manufactured by Sigma); purchased Sigma; host or cells: rabbit lung tissue
T1 sequence (P12822 34-1310): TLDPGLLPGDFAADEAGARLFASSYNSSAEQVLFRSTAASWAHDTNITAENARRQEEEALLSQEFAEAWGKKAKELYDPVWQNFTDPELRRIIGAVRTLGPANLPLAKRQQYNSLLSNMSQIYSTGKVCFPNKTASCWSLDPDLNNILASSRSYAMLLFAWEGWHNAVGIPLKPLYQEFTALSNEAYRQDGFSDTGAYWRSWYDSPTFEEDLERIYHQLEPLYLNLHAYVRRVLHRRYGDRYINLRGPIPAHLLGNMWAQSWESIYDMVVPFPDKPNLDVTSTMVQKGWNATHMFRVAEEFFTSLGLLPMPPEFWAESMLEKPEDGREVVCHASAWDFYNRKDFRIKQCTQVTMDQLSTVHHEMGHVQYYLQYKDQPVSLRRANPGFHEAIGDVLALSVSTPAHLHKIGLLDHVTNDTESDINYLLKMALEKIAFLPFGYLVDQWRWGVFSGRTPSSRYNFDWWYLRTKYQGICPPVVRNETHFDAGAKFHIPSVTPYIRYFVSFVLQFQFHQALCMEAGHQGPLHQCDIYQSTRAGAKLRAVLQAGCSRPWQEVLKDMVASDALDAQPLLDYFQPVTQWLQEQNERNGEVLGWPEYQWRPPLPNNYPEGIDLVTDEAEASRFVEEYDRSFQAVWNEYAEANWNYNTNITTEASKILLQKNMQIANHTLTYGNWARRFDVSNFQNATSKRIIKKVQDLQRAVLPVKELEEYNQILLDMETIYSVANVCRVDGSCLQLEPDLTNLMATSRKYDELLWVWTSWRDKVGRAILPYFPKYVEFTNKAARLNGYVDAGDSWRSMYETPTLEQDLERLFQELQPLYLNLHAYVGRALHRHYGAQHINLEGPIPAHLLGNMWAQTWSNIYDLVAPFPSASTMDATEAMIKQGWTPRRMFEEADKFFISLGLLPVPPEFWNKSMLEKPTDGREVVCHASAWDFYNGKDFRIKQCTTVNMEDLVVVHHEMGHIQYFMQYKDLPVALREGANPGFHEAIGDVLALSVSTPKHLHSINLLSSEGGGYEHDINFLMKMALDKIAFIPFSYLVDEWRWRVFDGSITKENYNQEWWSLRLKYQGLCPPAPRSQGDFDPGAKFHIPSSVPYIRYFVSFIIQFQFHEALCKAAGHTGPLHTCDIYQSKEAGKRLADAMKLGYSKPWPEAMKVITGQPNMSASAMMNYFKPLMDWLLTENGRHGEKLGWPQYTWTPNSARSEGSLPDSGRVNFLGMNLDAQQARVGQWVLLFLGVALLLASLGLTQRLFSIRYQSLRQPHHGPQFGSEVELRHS
Put plainly: Measurement of ACE inhibitory activity by Cushman and Cheung method. The data set is classed as biochemical. The conditions noted are these: substrate hippuryl-L-histidyl-L-leucine, pH 8.3, 37° C. for 30 minutes, no pre-incubation; determined by extrapolation on the graph; read-out: concentration that indicates 50% inhibition (IC50) of ACE. An excerpt:
The separation and purification process comprises the steps of: injecting the extract solution obtained in the extraction process into a column filled with the cation exchange resin or anion exchange resin by a known method; washing the column with water and eluting the column with the aqueous electrolyte solution as the eluant; and measuring the ACE inhibitory activity of the fractions obtained to collect the fractions having the ACE inhibitory activity. Known methods such as the method of Cushman and Cheung may be used for measuring the ACE inhibitory activity.
<Measurement of ACE Inhibitory Activity>
The ACE inhibitory activity was measured as follows by Cushman and Cheung method. […]
After mixing the compositions of the reaction solution (i), (ii), (iii), and (iv), enzyme solution (v) was added to the mixed solution without pre-incubation, and the solution was allowed to react (incubate) at 37° C. for 30 minutes. […] The extract solution was evaporated to dryness using a centrifugal evaporator, and the residue was dissolved in 1 ml of water to measure the concentration of the extract by absorbance at 228 nm using a spectrophotometer. The measured absorbance was defined as ODs (ODs1, ODs2 and ODs3) for the measurements using samples solutions 1, 2 and 3, respectively. […]

Data set [2] is described as follows: Solubility (other chemical and physical properties). The data set is classed as physicochemical. The conditions noted are these: in water, dilute acid and dilute alkali. The method, then:
While the novel substance of the invention is positive to the ninhydrin reaction, the reaction is suppressed by Cu^2+ ions. […] Almost no usual amino acids are detected when amino acids are detected with an automatic amino acid analyzer after decomposing the novel substance of the invention with 6N HCl at 110° C. for 16 hours, and the decomposition product has a complicated composition. The novel substance of the invention has a melting point of 275 to 280° C. and a specific rotation [α]D^23.6 of −40° (c=0.4 g/100 ml; solvent=water) and [α]D^23.6 of −34.5° (c=0.2 g/100 ml/; solvent=1N HCl).

`N[C@@H](CCN[C@@H](CCN1CC[C@H]1C(=O)O)C(=O)O)C(=O)O` [nicotianamine, Nicotianamine]: in data set [1], the IC50 is 85 nM.

As to `N[C@H](C(=O)O)C(O)CN[C@@H](CCN1CC[C@H]1C(=O)O)C(=O)O` (stereo partly drawn) [2″-hydroxynicotianamine], the solubility result in data set [2] was “soluble in water, dilute acid and dilute alkali”. For the same molecule, the IC50 in data set [1] was 80 nM.
